We go through two molecules from patent US20130303576A1, “ENZYME INHIBITORS” (priority 2009, published 2013).

The subject of experiment [1] is U937 cells. In words: U937 cell inhibition assay (WST-1 cell viability). Conditions: for times more potent in the monocytic cell line (U937) than the non-monocytic cell line (Hut78): U937 versus Hut78; for potency in the U937 cellular assay compared with the parent compound: versus parent compound A. It counts as cell-based. How it is done:
(§1) Cancer cell lines (U937 and HUT) growing in log phase were harvested and seeded at 1000-2000 cells/well (100 μl final volume) into 96-well tissue culture plates. Following 24 h of growth cells were treated with Compound. Plates were then re-incubated for a further 72-98 h before a WST-1 cell viability assay was conducted according to the suppliers (Roche Applied Science) instructions.
(§2) Data were expressed as a percentage inhibition of the control, measured in the absence of inhibitor, as follows:
(§3) % inhibition=100−[(S^i/S^o)×100]
(§4) where S^i is the signal in the presence of inhibitor and S^o is the signal in the presence of DMSO.
(§5) Dose response curves were generated from 8 concentrations (top final concentration 10 μM, with 3-fold dilutions), using 6 replicates.
(§6) IC50 values were determined by non-linear regression analysis, after fitting the results to the equation for sigmoidal dose response with variable slope (% activity against log concentration of Compound), using Graphpad Prism software.
(§7) IC50 results were allocated to one of 3 ranges as follows: […]

Experiment [2] relates to HUT78 cells. As to the kind of experiment: HUT cell inhibition assay (WST-1 cell viability). It is filed as cell-based. Conditions: read-out: Inhibition of proliferation in HUT78 cells (IC50 nM). The method, then:
as §1, §2, §3, §4, §5, §6, §7

`CC(C)CC(C)(NCc1ccc(CCC(=O)NO)cc1)C(=O)OC1CCCC1` (racemic) [Example 16, Cyclopentyl N-{4-[3-(hydroxyamino)-3-oxopropyl]benzyl}-2-methyl-D,L-leucinate]: in experiment [1], the “times more potent in the monocytic cell line (U937) than the non-monocytic cell line (Hut78)” value turned out to be 30 times and the “potency in the U937 cellular assay compared with the parent compound” value is reported as “significantly more potent”. Also, the IC50 in experiment [2] stood at 0.04 nM.

For `O=C(CCc1ccc(CNC2(C(=O)OC3CCCC3)CCCC2)cc1)NO` [Example 14, Cyclopentyl 1-({4-[3-hydroxyamino)-3-oxopropyl]benzyl}amino) cyclopentanecarboxylate], in experiment [1], the “times more potent in the monocytic cell line (U937) than the non-monocytic cell line (Hut78)” value turned out to be 30 times and the “potency in the U937 cellular assay compared with the parent compound” value was “significantly more potent”.
